In the NIST ThermoML archive (doi:10.1016/j.jct.2010.04.003):
± gives the expanded uncertainty stated by the source.

Assay: xn = mol fraction of the nth substance listed
Settings: 101 kPa, Liquid, Buoyancy - hydrostatic balance with magnetic suspension - one sinker

CN(C)P(=O)(N(C)C)N(C)C [tris(dimethylamino)phosphine oxide] + O
mass density [kg/m3]
Settings | 288.15 K | 293.15 K | 298.15 K | 303.15 K | 308.15 K
x1 = 0.0023 | 1001.1 ± 0.22 | 1000.05 ± 0.21 | 998.77 ± 0.2 | 997.25 ± 0.19 | 995.51 ± 0.18
x1 = 0.00503 | 1003.51 ± 0.21 | 1002.29 ± 0.2 | 1000.85 ± 0.19 | 999.27 ± 0.19 | 997.34 ± 0.19
x1 = 0.0101 | 1007.82 ± 0.21 | 1006.2 ± 0.2 | 1004.52 ± 0.19 | 1002.76 ± 0.19 | 1000.79 ± 0.18
x1 = 0.0297 | 1024.31 ± 0.19 | 1021.59 ± 0.19 | 1018.84 ± 0.18 | 1016.02 ± 0.18 | 1013.39 ± 0.17
x1 = 0.05 | 1036.43 ± 0.17 | 1033.08 ± 0.16 | 1029.72 ± 0.16 | 1026.56 ± 0.16 | 1023.13 ± 0.16
x1 = 0.07 | 1043.92 ± 0.15 | 1040.44 ± 0.15 | 1036.96 ± 0.15 | 1033.47 ± 0.15 | 1029.7 ± 0.14
x1 = 0.1 | 1050.24 ± 0.14 | 1046.86 ± 0.14 | 1042.73 ± 0.14 | 1039 ± 0.14 | 1034.91 ± 0.14
x1 = 0.1496 | 1054.84 ± 0.15 | 1050.62 ± 0.15 | 1046.2 ± 0.15 | 1041.95 ± 0.15 | 1037.57 ± 0.15
x1 = 0.1999 | 1054.7 ± 0.15 | 1050.33 ± 0.15 | 1045.83 ± 0.15 | 1041.49 ± 0.15 | 1037.05 ± 0.15
x1 = 0.3008 | 1049.56 ± 0.17 | 1045 ± 0.17 | 1040.47 ± 0.17 | 1036.04 ± 0.16 | 1031.66 ± 0.16
x1 = 0.3999 | 1044.61 ± 0.18 | 1040.34 ± 0.18 | 1035.76 ± 0.18 | 1031.36 ± 0.18 | 1026.94 ± 0.18
x1 = 0.5002 | 1040.86 ± 0.2 | 1036.54 ± 0.2 | 1032.12 ± 0.2 | 1027.81 ± 0.2 | 1023.35 ± 0.2
x1 = 0.6 | 1038.03 ± 0.22 | 1033.74 ± 0.22 | 1029.39 ± 0.22 | 1025.15 ± 0.22 | 1020.66 ± 0.22
x1 = 0.6997 | 1035.45 ± 0.25 | 1031.15 ± 0.24 | 1026.79 ± 0.24 | 1022.51 ± 0.24 | 1018 ± 0.24
x1 = 0.8004 | 1033.06 ± 0.27 | 1028.72 ± 0.27 | 1024.37 ± 0.27 | 1020.03 ± 0.27 | 1015.57 ± 0.26
x1 = 0.8505 | 1031.95 ± 0.29 | 1027.66 ± 0.28 | 1023.31 ± 0.28 | 1019.05 ± 0.28 | 1014.64 ± 0.28
x1 = 0.91 | 1030.54 ± 0.3 | 1026.29 ± 0.3 | 1021.95 ± 0.3 | 1017.74 ± 0.3 | 1013.41 ± 0.3
x1 = 0.9499 | 1029.63 ± 0.32 | 1025.4 ± 0.31 | 1021.07 ± 0.31 | 1016.88 ± 0.31 | 1012.59 ± 0.31
x1 = 0.9703 | 1029.16 ± 0.32 | 1024.92 ± 0.32 | 1020.61 ± 0.32 | 1016.44 ± 0.32 | 1012.14 ± 0.31
x1 = 0.9849 | 1028.81 ± 0.33 | 1024.6 ± 0.32 | 1020.3 ± 0.32 | 1016.12 ± 0.32 | 1011.86 ± 0.32
x1 = 0.9937 | 1028.61 ± 0.33 | 1024.4 ± 0.33 | 1020.1 ± 0.32 | 1015.93 ± 0.32 | 1011.68 ± 0.32
x1 = 0.9967 | 1028.54 ± 0.33 | 1024.33 ± 0.33 | 1020.03 ± 0.33 | 1015.86 ± 0.32 | 1011.61 ± 0.32
x1 = 1 | 1028.47 ± 0.33 | 1024.26 ± 0.33 | 1019.96 ± 0.33 | 1015.79 ± 0.32 | 1011.54 ± 0.32
